This note sets out measurements from patent US20250212877A1, “SUGAR-CONTAINING COMPOSITION FOR FOLIAR SPRAY AND METHOD OF USING THE SAME” (priority 2022, published 2025).

The subject of this series is tomato leaf. Put plainly: Foliar absorption rate of sugar, Congo red method, tomato leaf. To be noted: summary of TABLE 1 over tomato and strawberry leaves; no adjuvant.

The structures appear in SMILES notation.

Source text: In glass greenhouse, cucumber (Korean White, made by Farm Hannong, Korea) and tomato (Seogwangtomato, made by Farm Hannong, Korea) seeds were sown to raise plants. The young plants were transplanted to a vinyl cup having a diameter of 10 cm and cucumber was cultivated up to 4.5-leaf stage and tomato was cultivated up to 6.5-leaf stage. Strawberry young plants (KINGSBERRY) were given from strawberry laboratory, put in each cup pot having a diameter of 10 cm and cultivated up to 6 to 8-leaf stage in the greenhouse. […] Acetonitrile and nonionized water were mixed at 3:7 (volume/volume) to prepare a 30% acetonitrile aqueous solution, 8 ml was put into a test tube having an outer diameter of 32 mm and a length of 200 mm and the test tube was closed with a rubber lid. The leaves sprayed with the sugar aqueous solution was picked, put and cleaned by reverse shaking at the speed of 60 rpm for 2 minutes. The cleaning solution was analyzed by high-performance liquid chromatography (HPLC) to quantify Congo red and sugar, and the sugar absorption rate was calculated by the following Equation 1.

For `OC[C@H]1O[C@@](CO)(O[C@H]2O[C@H](CO)[C@@H](O)[C@H](O)[C@H]2O)[C@@H](O)[C@@H]1O` [sucrose], the “Absorption by tomato leaves and strawberry leaves, maximum” value was not above 1.3%.
